The experiment concerns Mycobacterium tuberculosis. In words: Antitubercular activity against Mycobacterium tuberculosis H37Rv ATCC 27294 after 5 days by microplate alamar blue assay. The format is functional. Conditions: H37Rv ATCC 27294, 120 h. Background: Resazurin is reduced to fluorescent resorufin, in cell work by metabolically active cells.

In brackets after ≈: the same amount, converted by molar mass.

Consider `O=C1NC(=O)/C(=C/c2c(-c3ccccc3)nc3sc(C(F)(F)F)nn23)S1`, for which inhibition of growth (MIC) required 25 µg/mL (≈ 63.1 µM).

As for `O=C1NC(=O)/C(=C/c2c(-c3ccc([N+](=O)[O-])cc3)nc3sc(C(F)(F)F)nn23)S1`, the lowest concentration to inhibit growth (MIC) was 50 µg/mL (≈ 113 µM).

Consider `COc1ccc(-c2nc3sc(C(F)(F)F)nn3c2/C=C2\SC(=S)NC2=O)cc1`, for which the MIC is 25 µg/mL (≈ 56.5 µM).

Regarding `Cc1ccc(-c2nc3sc(C(F)(F)F)nn3c2/C=C2\SC(=O)NC2=O)cc1`, the lowest concentration to inhibit growth (MIC) was 25 µg/mL (≈ 60.9 µM).

As for `O=C1NC(=O)/C(=C/c2c(-c3ccc(F)cc3)nc3sc(C(F)(F)F)nn23)S1`, 25 µg/mL (≈ 60.3 µM) was the least that counted as inhibitory (MIC).

For `O=C1NC(=S)S/C1=C\c1c(-c2ccc(Cl)cc2)nc2sc(C(F)(F)F)nn12`, it took 50 µg/mL (≈ 112 µM) to inhibit growth (MIC).

`O=C1NC(=S)S/C1=C\c1c(-c2ccc([N+](=O)[O-])cc2)nc2sc(C(F)(F)F)nn12` showed an MIC of 50 µg/mL (≈ 109 µM).

In turn, `COc1ccc(-c2nc3sc(C(F)(F)F)nn3c2/C=C2\SC(=S)N(CC(=O)O)C2=O)cc1` had an MIC of 1.56 µg/mL (≈ 3.12 µM).

The molecule `NNC(=O)c1ccncc1` [ISONIAZID] yielded an MIC of 1.56 µg/mL (≈ 11.4 µM).

For the molecule `O=C1NC(=O)/C(=C/c2c(-c3ccc(Cl)cc3)nc3sc(C(F)(F)F)nn23)S1`, the MIC stood at 3.12 µg/mL (≈ 7.24 µM).

As for `CO[C@H]1/C=C/O[C@@]2(C)Oc3c(C)c(O)c4c(O)c(c(/C=N/N5CCN(C)CC5)c(O)c4c3C2=O)NC(=O)/C(C)=C\C=C\[C@H](C)[C@H](O)[C@@H](C)[C@@H](O)[C@@H](C)[C@H](OC(C)=O)[C@@H]1C` [RIFAMPIN], the MIC is 0.78 µg/mL (≈ 0.948 µM).

The molecule `O=C1NC(=S)S/C1=C\c1c(-c2ccc(Br)cc2)nc2sc(C(F)(F)F)nn12` had an MIC of 3.12 µg/mL (≈ 6.35 µM).

`O=C1NC(=S)S/C1=C\c1c(-c2ccc(F)cc2)nc2sc(C(F)(F)F)nn12`: the MIC was 6.25 µg/mL (≈ 14.5 µM).

Molecule `O=C(O)CN1C(=O)/C(=C/c2c(-c3ccc(Cl)cc3)nc3sc(C(F)(F)F)nn23)SC1=S` registered an MIC of 3.12 µg/mL (≈ 6.18 µM).

Regarding `O=C(O)CN1C(=O)/C(=C/c2c(-c3ccc(F)cc3)nc3sc(C(F)(F)F)nn23)SC1=S`, 3.12 µg/mL (≈ 6.39 µM) was the least that counted as inhibitory (MIC).

The molecule `Cc1ccc(-c2nc3sc(C(F)(F)F)nn3c2/C=C2\SC(=S)N(CC(=O)O)C2=O)cc1` gave an MIC of 3.12 µg/mL (≈ 6.44 µM).

In turn, `O=C1NC(=O)/C(=C/c2c(-c3ccc(Br)cc3)nc3sc(C(F)(F)F)nn23)S1` registered an MIC of 25 µg/mL (≈ 52.6 µM).

On to `COc1ccc(-c2nc3sc(C(F)(F)F)nn3c2/C=C2\SC(=O)NC2=O)cc1`, for which the MIC is 25 µg/mL (≈ 58.6 µM).

The molecule `O=C(O)CN1C(=O)/C(=C/c2c(-c3ccc([N+](=O)[O-])cc3)nc3sc(C(F)(F)F)nn23)SC1=S` had an MIC of 25 µg/mL (≈ 48.5 µM).

As for `O=C(O)CN1C(=O)/C(=C/c2c(-c3ccc(Br)cc3)nc3sc(C(F)(F)F)nn23)SC1=S`, 3.12 µg/mL (≈ 5.68 µM) was the least that counted as inhibitory (MIC).

`Cc1ccc(-c2nc3sc(C(F)(F)F)nn3c2/C=C2\SC(=S)NC2=O)cc1` yielded an MIC of 6.25 µg/mL (≈ 14.7 µM).

The molecule `O=C(O)CN1C(=O)/C(=C/c2c(-c3ccccc3)nc3sc(C(F)(F)F)nn23)SC1=S` yielded an MIC of 6.25 µg/mL (≈ 13.3 µM).

The molecule `O=C1NC(=S)S/C1=C\c1c(-c2ccccc2)nc2sc(C(F)(F)F)nn12` returned an MIC of 6.25 µg/mL (≈ 15.2 µM).

By MIC is commonly meant the least concentration at which growth counts as inhibited. Lower therefore signals a more susceptible organism.

Values taken from ChEMBL document CHEMBL1955755, “Novel imidazo[2,1-b][1,3,4]thiadiazole carrying rhodanine-3-acetic acid as potential antitubercular agents” (2012).
